Assay results as given in PubChem BioAssay (NCI).
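A five-concentration, 48-hour dose response in 96-well plates underlies each endpoint, interpolated linearly between surrounding concentrations. Here, GI50 denotes the concentration required for 50% inhibition of growth. At the TGI there is no net growth.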

Assays:
Assay in all cases: NCI anticancer screen, dose series, 48 h
[1] = test system: HOP-92 NSCLC
[2] = test system: ACHN renal
[3] = test system: MOLT-4 leukemia
[4] = test system: MALME-3M melanoma
[5] = test system: K-562 leukemia
[6] = test system: OVCAR-8 ovarian
[7] = test system: NCI-H226 lung
[8] = test system: U251 CNS
[9] = test system: SR leukemia
[10] = test system: SK-MEL-5 melanoma

SMILES	TGI [1] [µM]	TGI [2] [µM]	TGI [3] [µM]	TGI [4] [µM]	TGI [5] [µM]	TGI [6] [µM]	TGI [7] [µM]	TGI [8] [µM]	TGI [9] [µM]	TGI [10] [µM]	GI50 [10] [µM]	GI50 [1] [µM]	GI50 [2] [µM]	GI50 [3] [µM]	GI50 [4] [µM]	GI50 [5] [µM]	GI50 [6] [µM]	GI50 [7] [µM]	GI50 [8] [µM]	GI50 [9] [µM]
CCOC(=O)C1SC(=Nc2ccc(Cl)cc2)N=C1C (stereo not given)	29.6	49.7	48.8	35.9	43.3	43.3	41.9	35.2	[…]											
CCOC(=O)NC(=O)c1cn(CCN2CCN(C(=O)CCCCCCCCCCC(=O)N3CCN(CCn4cc(C(=O)NC(=O)OCC)c(=O)[nH]c4=O)CC3)CC2)c(=O)[nH]c1=O	> 100	> 100	> 100	> 100	> 100	> 100	> 100	> 100	> 100	> 100										
CC(C)CCC1(CCN)C(=O)NC(=O)NC1=O	> 100	> 100	72.2	> 100	> 100	> 100	> 100	> 100	> 100	> 100										
O=C(O)[C@@H](Cc1ccc2ccccc2c1)NC(=O)n1c2ccccc2c2ccccc21	7.74	93.6	20.7	31.5	> 100	> 100	9.32	21.2	> 100	7.27	2.55	1.33	4.83	4.12	4.25	1.41	4.16	2.1	2.89	4.12
c1ccc2[nH]c(-c3ccc(Nc4nc(N5CCCCC5)nc(N5CCOCC5)n4)cc3)nc2c1	4.32	> 100	7.89	3.57		14.3	17.7	10	5.73	3.3	1.78	1.99	3.14	2.73	1.87		3.24	3.2	2.18	0.73
CCNC(=O)c1noc(-c2cc(C(C)C)c(O)cc2O)c1-c1ccc(CN2CCOCC2)cc1	0.0738	> 100	> 100	12.1	> 46.3	28.9	26.6	15.5	29	14.2	0.047	0.0252	0.0373	0.0326	0.025	< 0.0172	0.0423	0.0409	< 0.0131	0.0407
COC(=O)C1(C)Cc2cc(OC(C)=O)c(OC(C)=O)cc2N1 (stereo not given)	8.69	19.9	> 60.2	15.4	> 100	70.2	60	21.9	4.76	27.8	13.9	2.19	3.42	8.18	3.18	3.67	14.4	14.8	8.09	1.65
CC(NC(=O)N(C)C)NC(=O)N(C)C	> 10	> 10	> 10	> 10	> 10	> 10	> 10	> 10	> 10	> 10										
COC(=O)C1(O)CC(=O)CCC1c1ccc(OC)cc1 (stereo not given)	> 100	> 100	> 100	> 100	> 100	> 100	> 100	> 100	> 100	> 100										
CC(=O)OCC1OC(N2C(=O)C(=O)c3ccccc32)C(OC(C)=O)C(OC(C)=O)C1OC(C)=O (stereo not given)	> 100	> 100	> 100	> 100	> 100	> 100	> 100	> 100	> 100	> 100										
O=c1c(F)cn(Cc2ccccc2CCl)c(=O)n1Cc1ccccc1CCl	6.85	3.04	4.69	4.59	> 100	2.99	2.71	3.49	3.07	3.44	1.65	2.35	1.58	1.77	2.2	1.89	0.977	0.539	1.55	0.796
O=C(O)c1ccccc1/C=N/N=C1c2ccccc2-c2ccccc21	> 100	> 100	71	> 100	> 100	> 100	41.6	55.6	95.5	> 100										
c1c[nH]c(CN2CCOCC2)n1	> 100	> 100	> 100	> 100	> 100	> 100	> 100	> 100	> 100	> 100										
COc1ccc(CN2CCC/C=C/CC(Cl)(Cl)C2=O)cc1	62.5	78.8	68	87.7	> 100	> 100		> 100	68.8	35										
C=C(C)C1C/C=C(/C)CCCC2(CCC3=C(CC(C(=C)C)C/C=C(/C)CCC3)O2)C(=O)C1 (stereo not given)	> 100	> 100	> 100	> 100	> 100	> 100	> 100	> 100	> 100											
Cc1ccc(-c2nc3nc(-c4ccc(F)cc4)nc(N4CCCNCC4)c3o2)cc1	2.88	3.1	3.47	3.21	0.539		4.05	2.83	0.813	3.16	1.75	1.32	1.73	1.62	1.71	0.225		1.96	1.33	0.256
Cc1ccccc1NC(=O)C1C(=O)N(c2ccccc2C)C(=O)/C1=N\NC(N)=S (stereo not given)	> 100	> 100	> 100	> 100	> 100		> 100	> 100	> 100											
COc1ccc2[nH]c3c(c2c1)[C@H](C)C[C@@H]1C(=O)N(c2ccccc2)C(=O)[C@H]31	42.6	> 100	56.6	79.8	> 100	37.8		32.4	70.1	> 100										
